Source: patent US12473282B2, “Biphenyl fluorine double bond derivative, preparation method therefor, and pharmaceutical application thereof” (Abbisko Therapeutics Co., Ltd., priority 2020, dated 2025)

assay: Jurkat reporter gene cellular assay; format: cell-based; settings: Homo sapiens; Jurkat/NF-κB-luc/PD1 + Raji-PD-L1 coculture, OKT3 1 μg/mL, 6 hrs, activation fold; read-out: Cell Activity EC50
Protocol: The effect of compounds of the examples of the present invention and positive compounds on the interaction between PD-1 and PD-L1 expressed on cell surfaces, and the related influence on T cell functions, were determined by a Jurkat reporter gene cellular assay.
Briefly, the reporter gene plasmid of NF-κB-luc and the plasmid of human PD-1 were transfected into Jurkat cells to establish a stably transfected cell line capable of stably expressing both PD-1 and NF-κB-Luc reporter genes; the expression level of PD-1 on the cell surface was confirmed by flow cytometry; and the expression of the reporter gene was confirmed via the response of the reporter gene stimulated by OKT-3 and Raiji cells.
In addition, the plasmid of human PD-L1 was transfected into Raji cells to obtain a cell line capable of stably expressing PD-L1. Jurkat/NF-κB-luc/PD1 cells and Raji-PD-L1 cells were then cocultured and stimulated with OKT-3. On this basis, the compounds were added, and the enhancement of the signal pathway of T cell activation by the inhibitory effect of the compounds on the interaction between PD-1 and PD-L1 was evaluated by readings of reporter gene responses. The specific experimental process was as follows: • 1. 30 μL of compound or antibody solution was added to each well of a white 96-well plate (corning, 3610) at different diluted concentrations, and 10 μL of OKT3 (Biolegend, 317326) was then added (the final concentration of OKT3: 1 μg/mL); • 2. 20 μL of Raji-PD-L1 cell suspension was added to each well with 5*10^4 cells for each well, and was incubated in an incubator for 20 min; • 3. 20 μL of Jurkat/NF-Kb-luc/PD-1 cell suspension was added to each well with 5*10^4 cells for each well, and well mixed, and 6 hrs later, Bright-glo (Promega, E2620) was applied and plates were read on Envision; • 4. The reading of each well treated with the compound was compared with the reading of each well treated with DMSO to obtain the activation fold of the compound; • 5. EC50 values of compounds and positive compounds of the examples of the present invention were determined by non-linear regression analysis of activation folds at different compound concentrations.

| SMILES | EC50 [nM] |
| --- | --- |
| COc1cc(/C(F)=C/c2cccc(-c3cccc(NC(=O)c4nc5c(n4C)CCN(CCC46CCC(C(=O)O)(CC4)C6)C5)c3Cl)c2Cl)ncc1CN1CCC[C@H]1C(C)(C)O [Example 52, (S,Z)-4-(2-(2-((2,2′-dichloro-3′-(2-fluoro-2-(5-((2-(2-hydroxypropan-2-yl)pyrrolidin-1-yl)methyl)-4-methoxypyridin-2-yl)vinyl)-[1,1′-biphenyl]-3-yl)carbamoyl)-1-methyl-1,4,6,7-tetrahydro-5H-imidazo [4,5-c]pyridin-5-yl)ethyl)bicyclo[2.2.1]heptane-1-carboxylic acid] | 116 |
| COc1cc(/C(F)=C/c2cccc(-c3cccc(NC(=O)c4nc5c(n4C)CCN(CCC46CCC(C(=O)O)(CC4)C6)C5)c3Cl)c2Cl)ncc1CNCCCO [Example 43, (Z)-4-(2-(2-((2,2′-dichloro-3′-(2-fluoro-2-(5-(((3-hydroxypropyl)amino)methyl)-4-methoxypyridin-2-yl)vinyl)-[1,1′-biphenyl]-3-yl)carbamoyl)-1-methyl-1,4,6,7-tetrahydro-5H-imidazo[4,5-c]pyridin-5-yl)ethyl)bicyclo[2.2.1]heptane-1-carboxylic acid] | 137 |
| COc1cc(/C(F)=C/c2cccc(-c3cccc(NC(=O)c4nc5c(n4C)CCN(CCC46CCC(C(=O)O)(CC4)C6)C5)c3Cl)c2Cl)ncc1CN[C@@H](C)CO [Example 44, (S,Z)-4-(2-(2-((2,2′-dichloro-3′-(2-fluoro-2-(5-(((1-hydroxypropan-2-yl)amino)methyl)-4-methoxypyridin-2-yl)vinyl)-[1,1′-biphenyl]-3-yl)carbamoyl)-1-methyl-1,4,6,7-tetrahydro-5H-imidazo[4,5-c]pyridin-5-yl)ethyl)bicyclo[2.2.1]heptane-1-carboxylic acid] | 105 |
| COc1cc(/C(F)=C/c2cccc(-c3cccc(NC(=O)c4nc5c(n4C)CCN(CCC46CCC(C(=O)O)(CC4)C6)C5)c3Cl)c2Cl)ncc1CN(C)C(C)C [Example 63, (Z)-4-(2-(2-((2,2′-dichloro-3′-(2-fluoro-2-(5-((isopropyl(methyl)amino)methyl)-4-methoxypyridin-2-yl)vinyl)-[1,1′-biphenyl]-3-yl)carbamoyl)-1-methyl-1,4,6,7-tetrahydro-5H-imidazo[4,5-c]pyridin-5-yl)ethyl)bicyclo[2.2.1]heptane-1-carboxylic acid] | 159 |
| COc1cc(/C(F)=C/c2cccc(-c3cccc(NC(=O)c4nc5c(n4C)CCN(CCC46CCC(C(=O)O)(CC4)C6)C5)c3Cl)c2Cl)ncc1CN1CC[C@@H](N(C)C)C1 [Example 66, (R,Z)-4-(2-(2-((2,2′-dichloro-3′-(2-(5-((3-(dimethylamino)pyrrolidin-1-yl)methyl)-4-methoxypyridin-2-yl)-2-fluorovinyl)-[1,1′-biphenyl]-3-yl)carbamoyl)-1-methyl-1,4,6,7-tetrahydro-5H-imidazo[4,5-c]pyridin-5-yl)ethyl)bicyclo[2.2.1]heptane-1-carboxylic acid] | 347 |
| Cc1c(/C=C(\F)c2nc3c(n2C)CCN(C(C)C)C3)cccc1-c1cccc(NC(=O)c2nc3c(n2C)CCN(CCC24CCC(C(=O)O)(CC2)C4)C3)c1Cl [Example 4, (Z)-4-(2-(2-((2-chloro-3′-(2-fluoro-2-(5-isopropyl-1-methyl-4,5,6,7-tetrahydro-1H-imidazo[4,5-c]pyridin-2-yl)vinyl)-2′-methyl-[1,1′-biphenyl]-3-yl)carbamoyl)-1-methyl-1,4,6,7-tetrahydro-5H-imidazo [4,5-c]pyridin-5-yl)ethyl)bicyclo[2.2.1]heptane-1-carboxylic acid] | 289 |
| Cc1c(/C=C(\F)c2cc(C3CC3)c(CN3CCCC[C@H]3C(=O)O)cn2)cccc1-c1cccc(NC(=O)c2nc3c(n2C)CCN(C(C)C)C3)c1C [Example 18, (S,Z)-1-((4-cyclopropyl-6-(1-fluoro-2-(3′-(5-isopropyl-1-methyl-4,5,6,7-tetrahydro-1H-imidazo[4,5-c]pyridine-2-carboxamido)-2,2′-dimethyl-[1,1′-biphenyl]-3-yl)vinyl)pyridin-3-yl)methyl)piperidine-2-carboxylic acid] | 249 |
| COc1cc(/C(F)=C/c2cccc(-c3cccc(NC(=O)c4nc5c(n4C)CCN(CCC46CCC(C(=O)O)(CC4)C6)C5)c3Cl)c2Cl)ncc1CN1CC[C@](C)(C(=O)O)C1 [Example 76, (S,Z)-1-((6-(2-(3′-(5-(2-(4-carboxybicyclo[2.2.1]heptan-1-yl)ethyl)-1-methyl-4,5,6,7-tetrahydro-1H-imidazo[4,5-c]pyridine-2-carboxamido)-2,2′-dichloro-[1,1′-biphenyl]-3-yl)-1-fluorovinyl)-4-methoxypyridin-3-yl)methyl)-3-methylpyrrolidine-3-carboxylic acid] | 98.1 |
| Cc1c(/C=C(\F)c2nc3c(n2C)CCNC3)cccc1-c1cccc(NC(=O)c2nc3c(n2C)CCN(CCC24CCC(C(=O)O)(CC2)C4)C3)c1C [Example 2, (Z)-4-(2-(2-((3′-(2-fluoro-2-(1-methyl-4,5,6,7-tetrahydro-1H-imidazo [4,5-c]pyridin-2-yl)vinyl)-2,2′-dimethyl-[1,1′-biphenyl]-3-yl)carbamoyl)-1-methyl-1,4,6,7-tetrahydro-5H-imidazo[4,5-c]pyridin-5-yl)ethyl)bicyclo[2.2.1]heptane-1-carboxylic acid] | 244 |
| COc1cc(/C(F)=C/c2cccc(-c3cccc(NC(=O)c4nc5c(n4C)CCN(CCC46CCC(C(=O)O)(CC4)C6)C5)c3Cl)c2Cl)ncc1CN1CCC(O)(C(F)(F)F)C1 (stereo not drawn) [Example 61, (Z)-4-(2-(2-((2,2′-dichloro-3′-(2-fluoro-2-(5-((3-hydroxy-3-(trifluoromethyl)pyrrolidin-1-yl)methyl)-4-methoxypyridin-2-yl)vinyl)-[1,1′-biphenyl]-3-yl)carbamoyl)-1-methyl-1,4,6,7-tetrahydro-5H-imidazo [4,5-c]pyridin-5-yl)ethyl)bicyclo[2.2.1]heptane-1-carboxylic acid] | 522 |
| COc1cc(/C(F)=C/c2cccc(-c3cccc(NC(=O)c4nc5c(n4C)CCN(CCC46CCC(C(=O)O)(CC4)C6)C5)c3Cl)c2Cl)ncc1CN(C)CCN(C)C [Example 54, (Z)-4-(2-(2-((2,2′-dichloro-3′-(2-(5-(((2-(dimethylamino)ethyl)(methyl)amino)methyl)-4-methoxypyridin-2-yl)-2-fluorovinyl)-[1,1′-biphenyl]-3-yl)carbamoyl)-1-methyl-1,4,6,7-tetrahydro-5H-imidazo [4,5-c]pyridin-5-yl)ethyl)bicyclo[2.2.1]heptane-1-carboxylic acid] | 250 |
| COc1cc(/C(F)=C/c2cccc(-c3cccc(NC(=O)c4nc5c(n4C)CCN(CCC46CCC(C(=O)O)(CC4)C6)C5)c3Cl)c2Cl)ncc1CN1CC2CCC1C2 (stereo not drawn) [Example 77, (Z)-4-(2-(2-((3′-(2-(5-((2-azabicyclo[2.2.1]heptan-2-yl)methyl)-4-methoxypyridin-2-yl)-2-fluorovinyl)-2,2′-dichloro-[1,1′-biphenyl]-3-yl)carbamoyl)-1-methyl-1,4,6,7-tetrahydro-5H-imidazo[4,5-c]pyridin-5-yl)ethyl)bicyclo[2.2.1]heptane-1-carboxylic acid] | 54.4 |
| COc1cc(/C(F)=C/c2cccc(-c3cccc(NC(=O)c4nc5c(n4C)CCN(CCC46CCC(C(=O)O)(CC4)C6)C5)c3Cl)c2Cl)ncc1CN1CCO[C@@H](CO)C1 [Example 69, (R,Z)-4-(2-(2-((2,2′-dichloro-3′-(2-fluoro-2-(5-((2-(hydroxymethyl)morpholino)methyl)-4-methoxypyridin-2-yl)vinyl)-[1,1′-biphenyl]-3-yl)carbamoyl)-1-methyl-1,4,6,7-tetrahydro-5H-imidazo[4,5-c]pyridin-5-yl)ethyl)bicyclo[2.2.1]heptane-1-carboxylic acid] | 116 |
| COc1cc(/C(F)=C/c2cccc(-c3cccc(NC(=O)c4nc5c(n4C)CCN(CCC46CCC(C(=O)O)(CC4)C6)C5)c3Cl)c2Cl)ncc1CNC1CCCC1 [Example 51, (Z)-4-(2-(2-((2,2′-dichloro-3′-(2-(5-((cyclopentylamino)methyl)-4-methoxypyridin-2-yl)-2-fluorovinyl)-[1,1′-biphenyl]-3-yl)carbamoyl)-1-methyl-1,4,6,7-tetrahydro-5H-imidazo[4,5-c]pyridin-5-yl)ethyl) bicyclor[2.2.1]heptane-1-carboxylic acid] | 90.1 |
| COc1cc(/C(F)=C/c2cccc(-c3cccc(NC(=O)c4nc5c(n4C)CCN(CCC46CCC(C(=O)O)(CC4)C6)C5)c3Cl)c2Cl)ncc1CN1CCC(C)(C)C1 [Example 64, (Z)-4-(2-(2-((2,2′-dichloro-3′-(2-(5-((3,3-dimethylpyrrolidin-1-yl)methyl)-4-methoxypyridin-2-yl)-2-fluorovinyl)-[1,1′-biphenyl]-3-yl)carbamoyl)-1-methyl-1,4,6,7-tetrahydro-5H-imidazo[4,5-c]pyridin-5-yl)ethyl)bicyclo[2.2.1]heptane-1-carboxylic acid] | 113 |
